Reference: patent US20070244111A1, “Pyrazolopyrimidines” (priority 2003, published 2007)
Where two headings read alike, the source gives them in different places.

Assay: log P determination by HPLC (EEC Directive 79/831 Annex V. A8)
Assay type: physicochemical
Conditions: HPLC gradient method
Description: The log P values were determined in accordance with EEC Directive 79/831 Annex V. A8 by HPLC (gradient method, acetonitrile/0.1% aqueous phosphoric acid).

[1] = gradient of acetonitrile/0.1% aqueous phosphoric acid, acetonitrile/0.1% aqueous phosphoric acid (pH 2.3), read-out: HPLC: log P

Row | chromatographic logP [1] | Compound | other results
1 | 6.07 | C=Cc1cnn2c(N3CCC(C)CC3)c(-c3ccc(F)cc3Cl)c(Cl)nc12 [Example 1, 3-vinyl-5-chloro-6-(2-chloro-4-fluorophenyl)-7-(4-methylpiperidino)pyrazolo[1 ,5a]pyrimidine] | –
2 | 5.31 | C#Cc1cnn2c(N3CCC(C)CC3)c(-c3ccc(F)cc3Cl)c(Cl)nc12 [Example 9] | –
3 | 7.21 | CC(C)/C=C/c1cnn2c(N3CCC(C)CC3)c(-c3ccc(F)cc3Cl)c(Cl)nc12 [Example 10] | –

The next lines start with the molecule.

Row | Compound | chromatographic logP [1] | other results
4 | CC(Nc1c(-c2ccccc2Cl)c(Cl)nc2c(/C(Cl)=C/C=O)cnn12)C(C)(C)C (centres unmarked) [Example 29] | – | chromatographic logP (acetonitrile/0.1% aqueous phosphoric acid (pH 2.3), read-out: HPLC: log P): 5.98
5 | N#Cc1cnn2c(N3CCOCC3)c(-c3ccc(F)cc3Cl)c(Cl)nc12 [Example 141] | 3.33 | –
6 | CC1CCN(c2c(-c3ccc(F)cc3Cl)c(Cl)nc3c(C=O)cnn23)CC1 [Example 142, 3-formyl-5-chloro-6-(2-chloro-4-fluorophenyl)-7-(4-methylpiperidino)pyrazolo[1,5-a]pyrimidine] | – | chromatographic logP (gradient of acetonitrile/0.1% aqueous phosphoric acid, pH 2.3, heading: HPLC: log P): 4.53
7 | O=Cc1cnn2c(N3CCOCC3)c(-c3ccc(F)cc3Cl)c(Cl)nc12 [Example 143] | 2.94 | –
8 | N#Cc1cnn2c(Cl)c(-c3ccc(F)cc3Cl)c(Cl)nc12 [Example 145, 3-cyano-5,7-dichloro-6-(2-chloro-4-fluorophenyl)pyrazolo[1 ,5-a]pyrimidine] | 3.48 | –
